From US20260183405A1, “SMALL MOLECULE-DRUG-CONJUGATES CLEAVABLE IN A TUMOR MICROENVIRONMENT” (priority 2022, published 2026)
Where two headings read alike, the source gives them in different places. Starred links: 1 amine or outer side, 2 acyl side, 3 side chain; linkers in the order of their positions; H or OH if unused. Non-standard residues stand in square brackets, D forms with d. Residues, ends and D or L forms follow the SMILES beside them. Groups on a side chain read outwards from the residue. *: point of attachment. Camptothecin(7-Et) = CCc1c2c(nc3ccccc13)-c1cc3c(c(=O)n1C2)COC(=O)[C@@]3(CC)O*; EuK = O=C(O)CC[C@H](NC(=O)N[C@@H](CCCCN*)C(=O)O)C(=O)O; Deacetylacetazolamide = NS(=O)(=O)c1nnc(N*)s1; Suc = O=C(CCC(=O)[*:2])[*:1]; PEG3 = NCCOCCOCCOCCC(=O)O; CO = O=C([*:1])[*:2]

Columns and labels:
Assay in all cases: Cytotoxicity in vitro in the presence and absence of elastase (MTT assay)
Type in all cases: cell-based
[1] = system: 786-O; conditions: 786-O cells, 72 h incubation
Protocol: (§1) Cultivation of cells was performed according to standard procedures with the media recommended by the provider. The cells, in a total volume of 100 μL, were seeded in a 96-well plate with a white bottom (#3610). After a 24 h incubation period at 37° C. and 5% CO2, the medium was exchanged by adding 90 μL fresh medium. The treatment started by adding the test compound in 10 μL of culture medium to the cells in triplicates. Concentrations ranging from 10^−5 M to 10^−13 M were chosen. Two identically treated sets of samples were prepared. One set was treated with the test compound alone, whereas to the second set the compound and 10 nM elastase (NE) was added followed by a 72 h incubation period at 37° C. and 5% CO2. The proliferation was detected using the MTT assay (ATCC). At the end of the incubation period the MTT reagent was added to all samples for 4h. Lysis of the cells followed by addition of the detergent was done overnight. The formed dye was detected at 570 nm. The proliferation of untreated but otherwise identically handled cells was defined as the 100% value. The dose response curves allowed the determination of the respective IC50 values. […]

[2] = system: HT29; conditions: HT29 cells, 72 h incubation
Protocol: as §1

[3] = system: NCI-H292; conditions: NCI-H292 cells, 72 h incubation
Protocol: as §1

[4] = system: SUM149PT; conditions: SUM149PT cells, 72 h incubation
Protocol: as §1

[5] = compound alone, read-out: IC50 without neutrophil elastase
[6] = with 10 nM elastase (NE), read-out: IC50 with neutrophil elastase

| Compound | IC50 [1, 5] | IC50 [1, 6] | IC50 [2, 5] | IC50 [2, 6] | IC50 [3, 5] | IC50 [3, 6] | IC50 [4, 5] | IC50 [4, 6] |
| --- | --- | --- | --- | --- | --- | --- | --- | --- |
| CCc1c2c(nc3ccccc13)-c1cc3c(c(=O)n1C2)COC(=O)[C@@]3(CC)OC(=O)[C@@H](NC(=O)[C@@H]1CCCN1C(=O)[C@H](CC(=O)O)NC(=O)CCOCCOCCOCCNC(=O)NC[C@H](NC(=O)CCCCNc1cc(C)ccn1)C(=O)N[C@@H](CC(=O)O)c1cc(Cl)cc(Cl)c1)C(C)C [Compound 29, disodium (4S)-4,11-diethyl-3,14-dioxo-3,4,12,14-tetrahydro-1H-pyrano[3′,4′:6,7]indolizino[1,2-b]quinolin-4-yl 1-{(2S,20S)-20-{[(1S)-2-carboxylato-1-(3,5-dichlorophenyl)ethyl]carbamoyl}-2-(carboxylatomethyl)-26-[(4-methylpyridin-2-yl)amino]-4,17,22-trioxo-7,10,13-trioxa-3,16,18,21-tetraazahexacosanan-1-oyl}-L-prolyl-L-valinate] | 100 to 999 nM | 1 to 9.9 nM | > 1000 nM | 10 to 99 nM | 100 to 999 nM | 1 to 9.9 nM | 100 to 999 nM | 1 to 9.9 nM |
| N2-(14-{4-[({(1R)-2-carboxy-1-[3-({3-[(propylcarbamoyl)amino]benzene-1-sulfonyl}amino)phenyl]ethyl}carbamoyl)amino]anilino}-14-oxo-4,7,10-trioxa-13-azatetradecanan-1-oyl}-L-asparaginyl-L-prolyl-N-{3-[{(1R)-1-[1-benzyl-4-(2,5-difluorophenyl)-1H-pyrrol-2-yl]-2,2-dimethylpropyl}(hydroxyacetyl)amino]propyl}-L-alaninamide [Compound 15] | > 1000 nM | 10 to 99 nM | 100 to 999 nM | 1 to 9.9 nM | 100 to 999 nM | 10 to 99 nM | 10 to 99 nM | 1 to 9.9 nM |
| CCc1c2c(nc3ccccc13)-c1cc3c(c(=O)n1C2)COC(=O)[C@@]3(CC)OC(=O)[C@@H](NC(=O)[C@@H]1CCCN1C(=O)[C@H](CC(=O)O)NC(=O)CCOCCOCCOCCNC(=O)[C@H](CCCCNC(=O)CCOCCOCCOCCNC(=O)CCC(=O)Nc1nnc(S(N)(=O)=O)s1)NC(=O)CCOCCOCCOCCNC(=O)CCC(=O)Nc1nnc(S(N)(=O)=O)s1)C(C)C [Compound 8, sodium (4S)-4,11-diethyl-3,14-dioxo-3,4,12,14-tetrahydro-1H-pyrano[3′,4′:6,7]indolizino[1,2-b]quinolin-4-yl 1-[(2S)-15-[(N2,N6-bis{14,17-dioxo-17-[(5-sulfamoyl-1,3,4-thiadiazol-2-yl)amino]-4,7,10-trioxa-13-azaheptadecanan-1-oyl}-L-lysyl)amino]-2-(carboxylatomethyl)-4-oxo-7,10,13-trioxa-3-azapentadecanan-1-oyl]-L-prolyl-L-valinate] ({Deacetylacetazolamide-Suc-PEG3}-K([PEG3-Suc-Deacetylacetazolamide])[PEG3]DPV-{Camptothecin(7-Et)}) | > 1000 nM | 10 to 99 nM | > 1000 nM | 10 to 99 nM | > 1000 nM | 10 to 99 nM | > 1000 nM | 10 to 99 nM |
| CCc1c2c(nc3ccccc13)-c1cc3c(c(=O)n1C2)COC(=O)[C@@]3(CC)OC(=O)[C@@H](NC(=O)[C@@H]1CCCN1C(=O)[C@H](CC(=O)O)NC(=O)CCOCCOCCOCCNC(=O)[C@H](CCCCNC(=O)CCOCCOCCOCCNC(=O)NCCCC[C@H](NC(=O)N[C@@H](CCC(=O)O)C(=O)O)C(=O)O)NC(=O)CCOCCOCCOCCNC(=O)NCCCC[C@H](NC(=O)N[C@@H](CCC(=O)O)C(=O)O)C(=O)O)C(C)C [Compound 7, heptasodium (4S)-4,11-diethyl-3,14-dioxo-3,4,12,14-tetrahydro-1H-pyrano[3′,4′:6,7]indolizino[1,2-b]quinolin-4-yl 1-[(2S)-15-{[N2,N6-bis(3S,7S)(1,3,7-tricarboxylato-5,13,26-trioxo-17,20,23-trioxa-4,6,12,14-tetraazahexacosan-26-yl)-L-lysyl]amino}-2-(carboxylatomethyl)-4-oxo-7,10,13-trioxa-3-azapentadecanan-1-oyl]-L-prolyl-L-valinate] ({EuK-CO-PEG3}-K([PEG3-CO-EuK])[PEG3]DPV-{Camptothecin(7-Et)}) | 100 to 999 nM | 1 to 9.9 nM | > 1000 nM | 10 to 99 nM | 100 to 999 nM | 1 to 9.9 nM | 100 to 999 nM | 1 to 9.9 nM |
| CCc1c2c(nc3ccccc13)-c1cc3c(c(=O)n1C2)COC(=O)[C@@]3(CC)OC(=O)[C@@H](NC(=O)[C@@H]1CCCN1C(=O)[C@H](CC(=O)O)NC(=O)CCOCCOCCOCCNC(=O)CCC(=O)Nc1nnc(S(N)(=O)=O)s1)C(C)C [Compound 4, sodium (4S)-4,11-diethyl-3,14-dioxo-3,4,12,14-tetrahydro-1H-pyrano[3′,4′:6,7]indolizino[1,2-b]quinolin-4-yl 1-{(2S)-2-(carboxylatomethyl)-4,17,20-trioxo-20-[(5-sulfamoyl-1,3,4-thiadiazol-2-yl)amino]-7,10,13-trioxa-3,16-diazaicosanan-1-oyl}-L-prolyl-L-valinate] | 100 to 999 nM | 1 to 9.9 nM | > 1000 nM | 10 to 99 nM | 100 to 999 nM | 1 to 9.9 nM | 100 to 999 nM | 1 to 9.9 nM |
| CC[C@@]1(OC(=O)[C@@H](NC(=O)[C@@H]2CCCN2C(=O)[C@H](CC(=O)O)NC(=O)CCOCCOCCOCCNC(=O)NCCCC[C@H](NC(=O)N[C@@H](CCC(=O)O)C(=O)O)C(=O)O)C(C)C)C(=O)OCc2c1cc1n(c2=O)Cc2c-1nc1cc(F)c(C)c3c1c2[C@@H](N)CC3 [Compound 11, tetrasodium (1S,9S)-1-amino-9-ethyl-5-fluoro-4-methyl-10,13-dioxo-2,3,9,10,13,15-hexahydro-1H,12H-benzo[de]pyrano[3′,4′:6,7]indolizino[1,2-b]quinolin-9-yl 1-[(2S,23S,27S)-23,27,29-tricarboxylato-2-(carboxylatomethyl)-4,17,25-trioxo-7,10,13-trioxa-3,16,18,24,26-pentaazanonacosanan-1-oyl]-L-prolyl-L-valinate] | 100 to 999 nM | 1 to 9.9 nM | > 1000 nM | 10 to 99 nM | 100 to 999 nM | 1 to 9.9 nM | 100 to 999 nM | 1 to 9.9 nM |
| CCCNC(=O)Nc1cccc(S(=O)(=O)Nc2cccc([C@@H](CC(=O)O)NC(=O)Nc3ccc(NC(=O)NCCOCCOCCOCCC(=O)N[C@@H](CC(N)=O)C(=O)N4CCC[C@H]4C(=O)N[C@H](C(=O)N[C@@H](CCN(C(=O)CO)[C@@H](c4cc(-c5cc(F)ccc5F)cn4Cc4ccccc4)C(C)(C)C)C(=O)NC)C(C)C)cc3)c2)c1 [Compound 19, sodium N^2-(14-{4-[({(1R)-2-carboxylato-1-[3-({3-[(propylcarbamoyl)amino]benzene-1-sulfonyl}amino)phenyl]ethyl}carbamoyl)amino]anilino}-14-oxo-4,7,10-trioxa-13-azatetradecanan-1-oyl)-L-asparaginyl-L-prolyl-N-[(2S)-4-[{(1R)-1-[1-benzyl-4-(2,5-difluorophenyl)-1H-pyrrol-2-yl]-2,2-dimethylpropyl}(hydroxyacetyl)amino]-1-(methylamino)-1-oxobutan-2-yl]-L-valinamide] | > 1000 nM | 1 to 9.9 nM | > 1000 nM | 1 to 9.9 nM | > 1000 nM | 0.1 to 1 nM | > 1000 nM | 0.1 to 1 nM |
| CCCNC(=O)Nc1cccc(S(=O)(=O)Nc2cccc([C@@H](CC(=O)O)NC(=O)Nc3ccc(NC(=O)NCCOCCOCCOCCC(=O)N[C@@H](CCC(=O)NCCOCCOCCOCCC(=O)N[C@@H](CC(=O)O)C(=O)N4CCC[C@H]4C(=O)N[C@H](C(=O)O[C@]4(CC)C(=O)OCc5c4cc4n(c5=O)Cc5c-4nc4ccccc4c5CC)C(C)C)C(=O)NCCOCCOCCOCCC(=O)N[C@@H](CC(=O)O)C(=O)N4CCC[C@H]4C(=O)N[C@H](C(=O)O[C@]4(CC)C(=O)OCc5c4cc4n(c5=O)Cc5c-4nc4ccccc4c5CC)C(C)C)cc3)c2)c1 [Compound 3] | 100 to 999 nM | 1 to 9.9 nM | 100 to 999 nM | 1 to 9.9 nM | 100 to 999 nM | 1 to 9.9 nM | 10 to 99 nM | 1 to 9.9 nM |
| CCCNC(=O)Nc1cccc(S(=O)(=O)Nc2cccc([C@@H](CC(=O)O)NC(=O)Nc3ccc(NC(=O)NCCOCCOCCOCCC(=O)N[C@@H](CC(=O)O)C(=O)N4CCC[C@H]4C(=O)N[C@H](C(=O)OCCCNC(=O)[C@H](Cc4ccccc4)NC(=O)[C@H](C)[C@@H](OC)[C@@H]4CCCN4C(=O)C[C@@H](OC)[C@H]([C@@H](C)CC)N(C)C(=O)[C@@H](NC(=O)[C@H](C(C)C)N(C)C)C(C)C)C(C)C)cc3)c2)c1 [Compound 30] | 100 to 999 nM | 10 to 99 nM | 100 to 999 nM | 1 to 9.9 nM | 10 to 99 nM | 1 to 9.9 nM | 10 to 99 nM | 1 to 9.9 nM |
